Results: ChEMBL document CHEMBL5649169 (ChemMedChem, 2018)

Tests used:
[1] = molecular target: Sarcoplasmic/endoplasmic reticulum calcium ATPase 2 (Homo sapiens) (UniProt P16615); further: assay method not described here
[2] = molecular target: Importin-9 (Homo sapiens) (UniProt Q96P70); further: assay method not described here
[3] = molecular target: Tyrosine-protein kinase FRK (Homo sapiens) (UniProt P42685); further: assay method not described here
[4] = molecular target: Heterogeneous nuclear ribonucleoprotein M (Homo sapiens) (UniProt P52272); further: assay method not described here
[5] = molecular target: Serine/threonine-protein kinase N1 (Homo sapiens) (UniProt Q16512); further: assay method not described here
[6] = molecular target: Tropomyosin alpha-3 chain (Homo sapiens) (UniProt P06753); further: assay method not described here
Sequence of Tropomyosin alpha-3 chain (Homo sapiens) (P06753 whole entry): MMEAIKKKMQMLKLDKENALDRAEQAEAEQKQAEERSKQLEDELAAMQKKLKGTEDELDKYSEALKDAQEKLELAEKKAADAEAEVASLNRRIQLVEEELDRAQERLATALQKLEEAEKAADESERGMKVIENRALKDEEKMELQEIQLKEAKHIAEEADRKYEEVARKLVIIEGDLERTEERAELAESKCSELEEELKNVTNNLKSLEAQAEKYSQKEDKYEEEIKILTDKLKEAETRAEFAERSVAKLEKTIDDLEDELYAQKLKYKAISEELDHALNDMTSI

[7] = molecular target: Nucleolar protein 56 (Homo sapiens) (UniProt O00567); further: assay method not described here
[8] = molecular target: 26S proteasome non-ATPase regulatory subunit 7 (Homo sapiens) (UniProt P51665); further: assay method not described here
[9] = molecular target: E3 ubiquitin-protein ligase synoviolin (Homo sapiens) (UniProt Q86TM6); further: assay method not described here
[10] = molecular target: Protein transport protein Sec61 subunit beta (Homo sapiens) (UniProt P60468); further: assay method not described here
Sequence of Protein transport protein Sec61 subunit beta (Homo sapiens) (P60468 whole entry): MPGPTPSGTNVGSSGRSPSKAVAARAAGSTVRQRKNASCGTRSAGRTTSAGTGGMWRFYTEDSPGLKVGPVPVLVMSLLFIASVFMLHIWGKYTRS

[11] = molecular target: Tyrosine-protein kinase Fer (Homo sapiens) (UniProt P16591); further: assay method not described here
Sequence of Tyrosine-protein kinase Fer (Homo sapiens) (P16591 whole entry, looked up): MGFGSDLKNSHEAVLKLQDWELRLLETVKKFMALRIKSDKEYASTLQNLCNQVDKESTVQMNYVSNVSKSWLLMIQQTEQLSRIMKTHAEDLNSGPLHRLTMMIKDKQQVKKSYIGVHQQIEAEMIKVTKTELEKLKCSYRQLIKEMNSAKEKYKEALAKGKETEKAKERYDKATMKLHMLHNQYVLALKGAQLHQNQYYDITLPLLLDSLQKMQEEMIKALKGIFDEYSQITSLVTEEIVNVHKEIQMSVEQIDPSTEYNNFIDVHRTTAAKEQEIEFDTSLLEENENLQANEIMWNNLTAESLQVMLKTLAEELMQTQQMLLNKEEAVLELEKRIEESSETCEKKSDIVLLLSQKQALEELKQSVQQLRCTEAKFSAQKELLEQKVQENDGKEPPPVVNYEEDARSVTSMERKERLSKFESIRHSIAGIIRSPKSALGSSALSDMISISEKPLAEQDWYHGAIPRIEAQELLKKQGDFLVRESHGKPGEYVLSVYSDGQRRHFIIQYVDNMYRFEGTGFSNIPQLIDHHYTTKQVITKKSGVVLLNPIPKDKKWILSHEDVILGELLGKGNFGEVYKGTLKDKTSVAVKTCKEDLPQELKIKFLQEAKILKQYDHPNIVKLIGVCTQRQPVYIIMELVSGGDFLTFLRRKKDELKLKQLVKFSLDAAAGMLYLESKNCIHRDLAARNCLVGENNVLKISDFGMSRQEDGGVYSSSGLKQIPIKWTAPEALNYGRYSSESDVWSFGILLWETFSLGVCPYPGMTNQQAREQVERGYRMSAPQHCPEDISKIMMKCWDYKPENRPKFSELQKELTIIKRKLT

[12] = molecular target: Vacuolar protein sorting-associated protein 35 (Homo sapiens) (UniProt Q96QK1); further: assay method not described here
[13] = molecular target: AP-2 complex subunit sigma (Homo sapiens) (UniProt P53680); further: assay method not described here
Sequence of AP-2 complex subunit sigma (Homo sapiens) (P53680 whole entry, looked up, one chain of several): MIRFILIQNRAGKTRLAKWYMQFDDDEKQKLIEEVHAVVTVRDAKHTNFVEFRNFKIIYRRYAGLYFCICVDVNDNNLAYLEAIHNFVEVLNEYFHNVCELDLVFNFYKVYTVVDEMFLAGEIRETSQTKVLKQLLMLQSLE

[14] = molecular target: Adenosylhomocysteinase (Homo sapiens) (UniProt P23526); further: assay method not described here
[15] = molecular target: Wee1-like protein kinase (Homo sapiens) (UniProt P30291); further: assay method not described here
Sequence of Wee1-like protein kinase (Homo sapiens) (P30291 whole entry, looked up): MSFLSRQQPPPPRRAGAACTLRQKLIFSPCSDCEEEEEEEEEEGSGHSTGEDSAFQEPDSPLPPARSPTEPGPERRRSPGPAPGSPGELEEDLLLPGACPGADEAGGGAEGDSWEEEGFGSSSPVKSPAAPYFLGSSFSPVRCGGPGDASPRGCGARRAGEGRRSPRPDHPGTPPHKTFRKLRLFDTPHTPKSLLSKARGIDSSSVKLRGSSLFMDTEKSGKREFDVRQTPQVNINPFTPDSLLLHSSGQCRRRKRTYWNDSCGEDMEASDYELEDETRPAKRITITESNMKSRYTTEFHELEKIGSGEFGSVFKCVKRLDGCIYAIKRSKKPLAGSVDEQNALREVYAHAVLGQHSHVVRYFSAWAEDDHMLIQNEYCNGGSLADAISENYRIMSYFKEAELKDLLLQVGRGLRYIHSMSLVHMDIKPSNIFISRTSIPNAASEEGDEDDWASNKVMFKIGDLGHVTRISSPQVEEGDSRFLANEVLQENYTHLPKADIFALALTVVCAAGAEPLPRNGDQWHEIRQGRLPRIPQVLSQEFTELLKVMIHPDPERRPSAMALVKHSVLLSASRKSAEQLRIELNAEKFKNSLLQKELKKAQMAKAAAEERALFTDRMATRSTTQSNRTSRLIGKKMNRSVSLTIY

[16] = molecular target: Inorganic pyrophosphatase (Homo sapiens) (UniProt Q15181); further: assay method not described here
Moesin (Homo sapiens) = Moesin (Homo sapiens) (UniProt P26038)
[17] = molecular target: 14-3-3 protein gamma (Homo sapiens) (UniProt P61981); further: assay method not described here
[18] = molecular target: NBAS subunit of NRZ tethering complex (Homo sapiens) (UniProt A2RRP1); further: assay method not described here
[19] = molecular target: Calreticulin (Homo sapiens) (UniProt P27797); further: assay method not described here
[20] = molecular target: Conserved oligomeric Golgi complex subunit 7 (Homo sapiens) (UniProt P83436); further: assay method not described here
[21] = molecular target: Thioredoxin (Homo sapiens) (UniProt P10599); further: assay method not described here
[22] = molecular target: Double-strand break repair protein MRE11 (Homo sapiens) (UniProt P49959); further: assay method not described here
Sequence of Double-strand break repair protein MRE11 (Homo sapiens) (P49959 whole entry, the tested form may be a part): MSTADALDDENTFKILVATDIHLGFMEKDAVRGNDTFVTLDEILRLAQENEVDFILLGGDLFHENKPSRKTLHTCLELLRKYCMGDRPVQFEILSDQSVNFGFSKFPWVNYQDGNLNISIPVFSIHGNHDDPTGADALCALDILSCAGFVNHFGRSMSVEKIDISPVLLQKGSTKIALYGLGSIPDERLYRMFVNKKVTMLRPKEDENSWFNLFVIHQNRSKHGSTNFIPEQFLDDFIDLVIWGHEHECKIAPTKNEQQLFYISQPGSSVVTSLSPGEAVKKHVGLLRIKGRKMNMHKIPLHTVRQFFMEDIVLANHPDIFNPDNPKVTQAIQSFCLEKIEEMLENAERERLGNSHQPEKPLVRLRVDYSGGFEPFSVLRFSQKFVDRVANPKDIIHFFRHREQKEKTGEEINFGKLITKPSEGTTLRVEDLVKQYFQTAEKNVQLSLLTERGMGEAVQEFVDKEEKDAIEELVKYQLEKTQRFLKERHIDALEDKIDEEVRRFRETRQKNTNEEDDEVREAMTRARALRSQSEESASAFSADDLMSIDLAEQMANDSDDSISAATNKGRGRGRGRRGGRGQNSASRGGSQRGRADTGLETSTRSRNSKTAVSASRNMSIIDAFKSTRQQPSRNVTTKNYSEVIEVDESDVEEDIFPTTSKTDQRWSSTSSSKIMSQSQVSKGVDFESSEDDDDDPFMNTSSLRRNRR

Ephrin type-B receptor 3 = Ephrin type-B receptor 3 (Homo sapiens, UniProt P54753); assay: Inhibition of Nano Luc-fused full length C-terminal EPHB3 (unknown origin) expressed in HEK293T cells using NanoGlo as substrate incubated for 2 hrs in presence of tracer by NanoBRET assay; format: cell-based
[23] = molecular target: Cyclin-dependent kinase 1 (Homo sapiens) (UniProt P06493); further: assay method not described here
[24] = molecular target: Fibroblast growth factor receptor 1 (Homo sapiens) (UniProt P11362); further: assay method not described here
[25] = molecular target: Calmodulin-1 (Homo sapiens) (UniProt P0DP23); further: assay method not described here
[26] = molecular target: Ras GTPase-activating-like protein IQGAP1 (Homo sapiens) (UniProt P46940); further: assay method not described here
[27] = molecular target: Protein transport protein Sec24C (Homo sapiens) (UniProt P53992); further: assay method not described here
[28] = molecular target: Myosin light chain kinase, smooth muscle (Homo sapiens) (UniProt Q15746); further: assay method not described here
[29] = molecular target: Receptor-type tyrosine-protein kinase FLT3 (Homo sapiens) (UniProt P36888); further: assay method not described here
[30] = molecular target: Succinate dehydrogenase [ubiquinone] iron-sulfur subunit, mitochondrial (Homo sapiens) (UniProt P21912); further: assay method not described here
[31] = molecular target: Apoptosis-inducing factor 1, mitochondrial (Homo sapiens) (UniProt O95831); further: assay method not described here
[32] = molecular target: Large ribosomal subunit protein eL14 (Homo sapiens) (UniProt P50914); further: assay method not described here
Stathmin (Homo sapiens) = Stathmin (Homo sapiens) (UniProt P16949)
[33] = molecular target: Nuclear cap-binding protein subunit 1 (Homo sapiens) (UniProt Q09161); further: assay method not described here
[34] = molecular target: F-actin-capping protein subunit alpha-2 (Homo sapiens) (UniProt P47755); further: assay method not described here
[35] = molecular target: Acidic leucine-rich nuclear phosphoprotein 32 family member A (Homo sapiens) (UniProt P39687); further: assay method not described here
Anamorsin (Homo sapiens) = Anamorsin (Homo sapiens) (UniProt Q6FI81)
[36] = molecular target: Acetyl-CoA carboxylase 1 (Homo sapiens) (UniProt Q13085); further: assay method not described here
[37] = molecular target: Vesicle-associated membrane protein 8 (Homo sapiens) (UniProt Q9BV40); further: assay method not described here
[38] = molecular target: Cathepsin B (Homo sapiens) (UniProt P07858); further: assay method not described here
[39] = molecular target: Ethanolaminephosphotransferase 1 (Homo sapiens) (UniProt Q9C0D9); further: assay method not described here
[40] = molecular target: Structural maintenance of chromosomes protein 4 (Homo sapiens) (UniProt Q9NTJ3); further: assay method not described here
Sequence of Structural maintenance of chromosomes protein 4 (Homo sapiens) (Q9NTJ3 whole entry): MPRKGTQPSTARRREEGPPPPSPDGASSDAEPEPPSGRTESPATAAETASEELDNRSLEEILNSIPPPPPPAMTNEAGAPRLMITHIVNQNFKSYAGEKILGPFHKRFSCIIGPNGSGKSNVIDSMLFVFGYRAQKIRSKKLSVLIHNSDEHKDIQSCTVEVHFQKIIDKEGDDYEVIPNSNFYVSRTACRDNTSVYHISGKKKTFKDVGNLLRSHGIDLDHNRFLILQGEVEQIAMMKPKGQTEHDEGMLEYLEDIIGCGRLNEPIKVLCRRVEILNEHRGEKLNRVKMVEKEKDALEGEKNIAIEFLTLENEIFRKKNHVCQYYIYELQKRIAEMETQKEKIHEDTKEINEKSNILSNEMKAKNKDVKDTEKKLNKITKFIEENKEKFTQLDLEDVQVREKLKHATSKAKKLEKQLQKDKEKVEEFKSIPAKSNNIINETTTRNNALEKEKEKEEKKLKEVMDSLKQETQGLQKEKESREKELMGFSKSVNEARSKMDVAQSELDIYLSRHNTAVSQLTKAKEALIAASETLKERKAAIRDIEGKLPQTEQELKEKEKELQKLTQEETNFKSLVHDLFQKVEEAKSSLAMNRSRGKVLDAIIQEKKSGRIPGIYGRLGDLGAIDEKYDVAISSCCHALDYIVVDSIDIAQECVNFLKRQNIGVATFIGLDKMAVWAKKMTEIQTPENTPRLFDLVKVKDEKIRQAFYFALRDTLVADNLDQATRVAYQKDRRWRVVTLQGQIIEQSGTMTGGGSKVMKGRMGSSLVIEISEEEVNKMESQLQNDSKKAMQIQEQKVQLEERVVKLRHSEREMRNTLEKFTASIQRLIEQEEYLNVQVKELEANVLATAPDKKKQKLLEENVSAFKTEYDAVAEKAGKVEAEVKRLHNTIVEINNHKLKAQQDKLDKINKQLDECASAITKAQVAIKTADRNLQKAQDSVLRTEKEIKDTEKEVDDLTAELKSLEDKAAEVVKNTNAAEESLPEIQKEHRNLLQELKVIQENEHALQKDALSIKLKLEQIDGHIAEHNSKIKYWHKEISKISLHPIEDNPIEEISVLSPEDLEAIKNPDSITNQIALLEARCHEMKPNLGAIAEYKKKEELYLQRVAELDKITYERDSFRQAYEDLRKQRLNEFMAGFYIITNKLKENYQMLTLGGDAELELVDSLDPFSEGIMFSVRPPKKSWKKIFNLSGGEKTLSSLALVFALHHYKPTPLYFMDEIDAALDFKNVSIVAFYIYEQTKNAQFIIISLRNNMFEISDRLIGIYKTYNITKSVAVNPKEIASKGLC

[41] = molecular target: Double-stranded RNA-binding protein Staufen homolog 1 (Homo sapiens) (UniProt O95793); further: assay method not described here
[42] = molecular target: Acyl-CoA dehydrogenase family member 10 (Homo sapiens) (UniProt Q6JQN1); further: assay method not described here
Sequence of Acyl-CoA dehydrogenase family member 10 (Homo sapiens) (Q6JQN1 whole entry): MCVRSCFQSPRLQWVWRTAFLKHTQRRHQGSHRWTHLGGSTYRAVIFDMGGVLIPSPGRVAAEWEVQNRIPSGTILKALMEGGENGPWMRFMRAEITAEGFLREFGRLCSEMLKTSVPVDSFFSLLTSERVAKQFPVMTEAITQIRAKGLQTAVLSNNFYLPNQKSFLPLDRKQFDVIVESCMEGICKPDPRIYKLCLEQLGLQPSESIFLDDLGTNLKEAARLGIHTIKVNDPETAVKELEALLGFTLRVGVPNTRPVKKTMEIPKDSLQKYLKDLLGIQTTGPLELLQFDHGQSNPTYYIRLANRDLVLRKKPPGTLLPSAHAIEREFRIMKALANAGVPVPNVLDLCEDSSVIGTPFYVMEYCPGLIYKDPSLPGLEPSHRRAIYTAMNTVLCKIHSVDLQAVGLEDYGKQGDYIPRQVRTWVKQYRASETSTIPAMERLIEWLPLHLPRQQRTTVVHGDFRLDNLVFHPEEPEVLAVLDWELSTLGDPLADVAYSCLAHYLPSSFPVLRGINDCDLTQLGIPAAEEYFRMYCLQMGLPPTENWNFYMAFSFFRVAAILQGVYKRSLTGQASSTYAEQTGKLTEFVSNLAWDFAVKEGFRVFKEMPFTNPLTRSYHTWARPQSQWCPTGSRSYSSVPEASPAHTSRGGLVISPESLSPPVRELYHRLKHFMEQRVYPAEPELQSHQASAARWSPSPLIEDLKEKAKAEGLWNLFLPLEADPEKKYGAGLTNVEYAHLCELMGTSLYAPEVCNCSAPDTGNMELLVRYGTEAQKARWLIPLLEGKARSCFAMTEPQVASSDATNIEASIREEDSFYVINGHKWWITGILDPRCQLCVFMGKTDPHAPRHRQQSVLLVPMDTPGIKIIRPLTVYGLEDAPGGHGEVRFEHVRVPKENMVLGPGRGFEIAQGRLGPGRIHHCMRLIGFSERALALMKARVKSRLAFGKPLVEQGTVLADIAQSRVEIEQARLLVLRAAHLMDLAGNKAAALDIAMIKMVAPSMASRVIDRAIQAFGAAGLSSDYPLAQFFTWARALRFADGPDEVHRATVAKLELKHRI
Wherever ED50 is given: assay method not described here.

## Cc1ccc(C(=O)Nc2cccc(C(F)(F)F)c2)cc1Nc1nc(-c2cccnc2)nc2nn(C)cc12
[1]
  ED50: 0.0232 µM
[2]
  ED50: 0.00375 µM
[3]
  ED50: 8.67 µM
[4]
  ED50: 13.5 µM
[5]
  ED50: 0.245 µM
[6]
  ED50: 18.9 µM
[7]
  ED50: 4 µM
[8]
  ED50: 0.0711 µM
[9]
  ED50: 0.00734 µM
[10]
  ED50: 3 µM
[11]
  ED50: 0.0189 µM
[12]
  ED50: 0.0256 µM
[13]
  ED50: 0.0179 µM
[14]
  ED50: 0.0533 µM
[15]
  ED50: 2.63 µM
[16]
  ED50: 1.31 µM
Moesin (Homo sapiens)
  ED50: 0.256 µM
[17]
  ED50: 0.68 µM
[18]
  ED50: 22.4 µM
[19]
  ED50: 24.5 µM
[20]
  ED50: 3.71 µM
[21]
  ED50: 11.4 µM
[22]
  ED50: 14.9 µM
Ephrin type-B receptor 3
  IC50: 0.191 µM
[23]
  ED50: 7.91 µM
[24]
  ED50: 0.0526 µM
[25]
  ED50: 0.213 µM
[26]
  ED50: 0.0354 µM
[27]
  ED50: 1.46 µM
[28]
  ED50: 0.00038 µM
[29]
  ED50: 16.7 µM
[30]
  ED50: 191 µM
[31]
  ED50: 0.182 µM
[32]
  ED50: 7.31 µM
Stathmin (Homo sapiens)
  ED50: 8.26 µM
[33]
  ED50: 1.78 µM
[34]
  ED50: 2.53 µM
[35]
  ED50: 12.4 µM
Anamorsin (Homo sapiens)
  ED50: 78.8 µM
[36]
  ED50: 0.0486 µM
[37]
  ED50: 4.59 µM
[38]
  ED50: 18.1 µM
[39]
  ED50: 0.809 µM
[40]
  ED50: 7.29 µM
[41]
  ED50: 0.0134 µM
[42]
  ED50: 0.434 µM

## Cc1ccc(C(=O)Nc2cccc(C(F)(F)F)c2)cc1Nc1nc(-c2cccnc2)nc2c1cnn2C
[1]
  ED50: 9.67 µM
[2]
  ED50: 19.2 µM
[3]
  ED50: 2.16 µM
[4]
  ED50: 8.57 µM
[5]
  ED50: 0.626 µM
[6]
  ED50: 5.57 µM
[7]
  ED50: 13.1 µM
[8]
  ED50: 4.12 µM
[9]
  ED50: 0.162 µM
[10]
  ED50: 11.5 µM
[11]
  ED50: 0.0297 µM
[12]
  ED50: 15.7 µM
[13]
  ED50: 0.678 µM
[14]
  ED50: 4.94 µM
[15]
  ED50: 0.0311 µM
[16]
  ED50: 8.44 µM
Moesin (Homo sapiens)
  ED50: 10.7 µM
[17]
  ED50: 0.00449 µM
[18]
  ED50: 0.0417 µM
[19]
  ED50: 24.3 µM
[20]
  ED50: 0.018 µM
[21]
  ED50: 13.1 µM
[22]
  ED50: 2.59 µM
Ephrin type-B receptor 3
  IC50: 0.006 µM
[23]
  ED50: 3.8 µM
[24]
  ED50: 11.2 µM
[25]
  ED50: 0.11 µM
[26]
  ED50: 4.7 µM
[27]
  ED50: 0.0116 µM
[28]
  ED50: 0.247 µM
[29]
  ED50: 0.00514 µM
[30]
  ED50: 93.1 µM
[31]
  ED50: 0.00539 µM
[32]
  ED50: 0.187 µM
Stathmin (Homo sapiens)
  ED50: 12.4 µM
[33]
  ED50: 0.000799 µM
[34]
  ED50: 3.23 µM
[35]
  ED50: 2.29 µM
Anamorsin (Homo sapiens)
  ED50: 0.0673 µM
[36]
  ED50: 16.4 µM
[37]
  ED50: 1.84 µM
[38]
  ED50: 60.4 µM
[39]
  ED50: 1.54 µM
[40]
  ED50: 7.32 µM
[41]
  ED50: 2.27 µM
[42]
  ED50: 11.5 µM
